The record followed here is patent publication US20080280810A1, “PEPTIDES HAVING AFFINITY FOR BODY SURFACES” (priority 2006, published 2008).

This assay is described as follows: Color retention after shampoo treatment, peptide as sealant with Basic Violet 2 dye. More on the design: species or system human. The conditions noted are these: for Delta E: 0.50 wt % Basic Violet 2, peptide 0.25 wt %, 30 min contact, after 10 shampoo treatments, dye alone 37.34; for hair color retention compared to the dye alone (in words): Basic Violet 2, by Delta E values, vs Comparative Example 13. The procedure:
The peptides used in this Example were prepared as described in Examples 1 and 2. The color retention was quantified using a spectrophotometric measurement technique. A peptide given as SEQ ID NO:41 or SEQ ID NO:42 (38 mg), produced via fermentation as described in Examples 1 and 2, was added to 15 g of an aqueous 0.50 wt % solution of Basic Violet 2 (Abbey Color, Philadelphia, Pa.) and the solution was allowed to stir for 1 h. A natural white hair tress (1 cm wide, potted, International Hair Importers & Products Inc., Bellerose, N.Y.) was inserted into a 15 mm×125 mm test tube and 13 mL of the peptide/dye mixture was injected into the test tube. The hair tress was immersed in contact with the colorant solution for 30 min and the colorant solution was agitated using a magnetic stirrer. The tress was removed, allowed to drip dry, and then air dried for 30 min. The hair tress was then subjected to a water rinse using copious amounts of deionized water, followed by a shampoo treatment with embrocation for 30 seconds. The shampoo treatment involved the application of Pantene Pro-V Sheer Volume shampoo (Proctor & Gamble, Cincinnati, Ohio) to the hair as follows. A quarter-sized drop of the shampoo was distributed evenly over the hair tress and then was massaged aggressively into the hair for 30 sec, after which the hair tress was rinsed with water to remove the shampoo. The hair tress was then dried at room temperature. The shampooing step was repeated 9 more times to give a total of 10 shampoo treatments. The entire procedure described above was repeated without the addition of the hair-binding peptide to serve as a control. The color intensity after the shampoo was measured as described in Examples 4-7.

Consider “P-TPPELLHGAPRS-KRKRK-D (PTPPELLHGAPRSKRKRKD; Peptide having affinity for hair) [HC 71]”, for which the “Delta E” value is recorded as 37.02 and the “hair color retention compared to the dye alone (in words)” value is “no improvement in hair color retention”.
Consider “P-EQISGSLVAAPW-KRKRK-D (PEQISGSLVAAPWKRKRKD; Peptide having affinity for hair) [HC 74]”, for which the “Delta E” value worked out at 38.91 and the “hair color retention compared to the dye alone (in words)” value is “a small improvement in hair color retention”.
